Earlier results on 3 substances are cited in patent US9320295B2, “Compositions containing non-polar compounds” (Virun, Inc., priority 2010, dated 2016).

Consider sucrose distearate, for which the HLB value is 3.
With sucrose monopalmitate, the HLB value is given as > 10.
As for sucrose dipalmitate, the HLB value was 7.4.
